Key:
p62-dependent mitophagy [1] = test: Luciferase-p62 assay (Fluc-p62 clearance) in mouse embryonic fibroblasts; assay type: cell-based; conditions: for Mean Luminescence: Luciferase-p62 assay, mouse embryonic fibroblasts (MEFs), compounds at 10 μM; for % Activity over baseline: percentage of Luciferase-p62 clearance relative to baseline (mean luminescence in the absence of doxycycline induction); for % Activity over baseline / % Activity relative to Rapamycin: MEFs, 10 μM; for % Activity relative to Rapamycin: percentage of activity relative to rapamycin tested in the same experiment at the same concentration
Procedure, shortened: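 MEFs with doxycycline-inducible Fluc-p62; after induction, doxycycline removed and cells treated 48 h with compounds at 10 μM. Fluc-p62 clearance, taken as mitophagy, read by ONE-Glo+Tox luciferase with viability. Vehicle (DMSO) as negative control; activity also expressed relative to rapamycin.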

[2] = system: primary human dermal fibroblasts (HDFs); test: Mitophagy assay, Su9-Halo-GFP reporter, fluorescence microscopy; assay type: cell-based
Experimental: (§1) FIGS. 15A-15C show hydroxycinnamic acids (HCAs) tested in mitophagy assays in primary HDFs. […] 80,000 mixed aged Fibroblasts expressing the Su9-Halo-GFP reporter were treated for 48 h with the indicated HCAs. A change in the reporter excitation occurs because the GFP tag is quenched in the lysosome environment, indicating mitophagy.
Primary human dermal fibroblasts (HDFs) were cultured in DMEM supplemented with 10 percent FBS, 100 units per milliliter penicillin/streptomycin, and 2 millimolar L-glutamine in a humidified atmosphere containing 5 percent carbon dioxide at 37 degrees Celsius. Stable expression of mt-mKeima was achieved through retroviral transduction (Kelly et al.). Cells stably expressing mt-mKeima were seeded in a 35 mm glass bottom dish (MatTek). The live-cell mt-Keima signal was obtained via widefield microscopy using the DMi8 and 2 filtersets to obtain the acidic (561 nm excitation, “red”) and pH-neutral (480 nm, “green”) mKeima signals. Using FIJI/ImageJ, a macro was applied to the mt-mKeima signal to extract mitolysosomes. […] Mitophagy events were determined as the number of puncta per cell. […] Fluorescence images were obtained using an LSM700 confocal microscope (Zeiss). The number of mitolysosomes (GFP-Halo+puncta) per cell was quantified using proprietary plugin in Fiji/ImageJ. […]

p62-dependent mitophagy [3] = test: Luciferase-p62 clearance assay, stated for HDFs; assay type: cell-based, human; conditions: 5 μM; HDFs
Experimental: as §1
To identify p62-dependent materials which increase mitophagy, a Luciferase-p62 Assay was established. This method provides an approach to measure the ability of a material to modulate p62-dependent mitophagy by using an inducible firefly luciferase-p62 (Fluc-p62) reporter cell system. In this assay, p62 levels are driven by doxycycline treatment. After levels increased, expression of Fluc-p62 is turned off by removal of doxycycline, materials are then added and assessed for how they affect clearance of Fluc-p62 protein, which is proportionate to cellular mitophagy rates (Kelly et al.). […]
Test materials including bioactive materials were screened in mouse embryonic fibroblasts (MEFs, Harada et al.) expressing the TET-inducible p62-fluc construct as previously described (Brown et al.). […] Subsequently, cells were treated with test materials for 48 hours in normal growth medium and analysed using ONE-Glo™+Tox Luciferase Reporter and Cell Viability Assay (Promega) by following the manufacturer's protocol.

## O=c1cc[nH]c(=O)[nH]1 [Uracil]
p62-dependent mitophagy [1]
  Mean Luminescence: 927.30
  % Activity over baseline: 42.69%
  % Activity relative to Rapamycin: 76.92%

## O=c1ccn([C@@H]2O[C@H](CO)[C@@H](O)[C@H]2O)c(=O)[nH]1 [Uridine]
p62-dependent mitophagy [1]
  Mean Luminescence: 955.62
  % Activity over baseline: 40.94%
  % Activity relative to Rapamycin: 73.77%

## O=c1oc2cc(O)ccc2c2ccc(O)cc12 [Urolithin A]
p62-dependent mitophagy [1]
  Mean Luminescence: 884.12
  % Activity over baseline: 45.36%
  % Activity relative to Rapamycin: 81.73%

## C[C@H]1[C@H](C)CC[C@]2(C(=O)O)CC[C@]3(C)C(=CC[C@@H]4[C@@]5(C)CC[C@H](O)C(C)(C)[C@@H]5CC[C@]43C)[C@H]12 [Ursolic acid]
p62-dependent mitophagy [1]
  Mean Luminescence: 905.10
  % Activity over baseline: 44.06%
  % Activity relative to Rapamycin: 79.39%

## COc1ccc(C=O)cc1OC [Veratraldehyde]
p62-dependent mitophagy [1]
  Mean Luminescence: 887.33
  % Activity over baseline: 45.16%
  % Activity relative to Rapamycin: 81.37%

## COc1ccc(C(=O)O)cc1OC [Veratric acid]
p62-dependent mitophagy [1]
  Mean Luminescence: 937.88
  % Activity over baseline: 42.04%
  % Activity relative to Rapamycin: 75.74%

## CC[C@]12CCCN3CCc4c(n(c5ccccc45)[C@@](O)(C(=O)OC)C1)[C@@H]32 [Vincamine]
p62-dependent mitophagy [1]
  Mean Luminescence: 716.24
  % Activity over baseline: 55.74%
  % Activity relative to Rapamycin: 100.42%

## CCC12C=CCN3CC[C@@]4(c5ccc(OC)cc5N(C)[C@H]4[C@@](O)(C(=O)OC)[C@@H]1OC(C)=O)[C@@H]32 (stereo partly drawn) [Vindoline]
p62-dependent mitophagy [1]
  Mean Luminescence: 930.98
  % Activity over baseline: 42.46%
  % Activity relative to Rapamycin: 76.51%

## O=C1O[C@H]([C@@H](O)CO)C(O)=C1O [Vitamin C]
p62-dependent mitophagy [1]
  Mean Luminescence: 962.07
  % Activity over baseline: 40.54%
  % Activity relative to Rapamycin: 73.05%

## C=C1CC[C@H](O)C/C1=C/C=C1\CCC[C@]2(C)[C@@H]([C@H](C)CCCC(C)C)CC[C@@H]12 [Vitamin D3]
p62-dependent mitophagy [1]
  Mean Luminescence: 488.16
  % Activity over baseline: 69.83%
  % Activity relative to Rapamycin: 125.82%

## COc1cc(O)c(CC=C(C)C)c(O)c1C(=O)/C=C/c1ccc(O)cc1 [Xanthohumol]
p62-dependent mitophagy [1]
  Mean Luminescence: 485.82
  % Activity over baseline: 69.98%
  % Activity relative to Rapamycin: 126.08%

## CCC/C=C1\OC(=O)C2=C1CCC=C2 [Z-Ligustilide]
p62-dependent mitophagy [1]
  Mean Luminescence: 895.67
  % Activity over baseline: 44.65%
  % Activity relative to Rapamycin: 80.44%

## CC1=C(/C=C/C(C)=C/C=C/C(C)=C/C=O)C(C)(C)CCC1 [all-trans Retinal]
p62-dependent mitophagy [1]
  Mean Luminescence: 967.12
  % Activity over baseline: 40.23%
  % Activity relative to Rapamycin: 72.49%

## O=C(O)c1cccc(O)c1 [m-Hydroxybenzoic acid]
p62-dependent mitophagy [1]
  Mean Luminescence: 745.89
  % Activity over baseline: 53.90%
  % Activity relative to Rapamycin: 97.12%

## O[C@H]1[C@H](O)[C@@H](O)[C@H](O)[C@@H](O)[C@H]1O [myo-Inositol]
p62-dependent mitophagy [1]
  Mean Luminescence: 670.16
  % Activity over baseline: 58.58%
  % Activity relative to Rapamycin: 105.55%

## O=C(O)/C=C/c1ccc(O)cc1 [p-coumaric acid]
[2]; 8 μM, 48 h, mixed aged fibroblasts, Su9-Halo-GFP reporter
  mitophagy events by fluorescence microscopy: increases mitophagy events
[2]; 0.1-8 μM, HDFs
  increase of basal mitophagy levels, dose-response comparison with ferulic acid: outperforms an O-methylated form (ferulic acid)
p62-dependent mitophagy [3]
  p62-dependent mitophagy vs. untreated control cells: significantly increases p62-dependent mitophagy

## C/C(=C\CNc1ncnc2nc[nH]c12)CO [trans-Zeatin]
p62-dependent mitophagy [1]
  Mean Luminescence: 994.70
  % Activity over baseline: 38.53%
  % Activity relative to Rapamycin: 69.42%

## O=c1cc(-c2ccccc2)oc2c1ccc1ccccc12 [α-Naphthoflavone]
p62-dependent mitophagy [1]
  Mean Luminescence: 781.48
  % Activity over baseline: 51.70%
  % Activity relative to Rapamycin: 93.16%

## Bacitracin Zinc
p62-dependent mitophagy [1]
  Mean Luminescence: 919.94
  % Activity over baseline: 43.15%
  % Activity relative to Rapamycin: 77.74%

## Bleomycin Sulfate
p62-dependent mitophagy [1]
  Mean Luminescence: 615.38
  % Activity over baseline: 61.97%
  % Activity relative to Rapamycin: 111.65%

## Picrotoxin
p62-dependent mitophagy [1]
  Mean Luminescence: 868.69
  % Activity over baseline: 46.31%
  % Activity relative to Rapamycin: 83.45%

## Schisantherin A
p62-dependent mitophagy [1]
  Mean Luminescence: 875.42
  % Activity over baseline: 45.90%
  % Activity relative to Rapamycin: 82.70%

## Tubeimoside I
p62-dependent mitophagy [1]
  Mean Luminescence: 257.38
  % Activity over baseline: 84.09%
  % Activity relative to Rapamycin: 151.52%

Reference: patent US20250381110A1, “SKIN CARE COMPOSITION AND METHOD OF USING THE SAME” (THE PROCTER & GAMBLE COMPANY, priority 2024, published 2025)
